The text below walks through data of patent US20210213063A1, “COMBINATION THERAPY WITH CHIMERIC ANTIGEN RECEPTOR (CAR) THERAPIES” (Novartis AG, priority 2018, published 2021).

One data set deals with MCL. Particulars: ibrutinib added to CART19 therapy.
In data set [1] the test system is relapsed/refractory diffuse large B-cell lymphoma (DLBCL). Kind of data set: JULIET (NCT02445248) pivotal phase 2 trial of tisagenlecleucel in adult r/r DLBCL. It is filed as in vivo, human. An excerpt:
This Example describes the JULIET (NCT02445248) clinical trial, which is a single-arm, open-label, multicenter, global, pivotal phase 2 trial of tisagenlecleucel, a chimeric antigen receptor (CAR)-T cell therapy targeting CD19, that has shown a high rate of durable complete responses (CR) and a manageable safety profile in adult patients with relapsed/refractory (r/r) diffuse large B-cell lymphoma (DLBCL). The primary objective was met at the interim analysis, with an overall response rate (ORR) of 59% (CR, 43%; partial response [PR], 16%). An updated analysis of the JULIET trial is presented herein with 19 months of follow-up, an additional 5 months since the previous report.
The primary endpoint was ORR (CR+PR) per independent review committee. Efficacy results are reported for patients in the main cohort with ≥3 months follow-up or earlier discontinuation; safety is reported for all infused patients.
At data cutoff (21 May 2018), 167 patients were enrolled and 115 were infused (99 with US-manufactured [main cohort] and 16 with EU-manufactured [cohort A] tisagenlecleucel) with a single dose of tisagenlecleucel (median, 3.0×10^8 [range, 0.1-6.0×10^8] CAR19-positive viable T cells). 90% of patients received bridging therapy and 93% received lymphodepleting chemotherapy. Median time from infusion to data cutoff was 19.3 months. Median age was 56 years (range, 22-76); 23% were ≥65 years. At study entry, 77% of infused patients had stage III/IV disease, 17% had double/triple hits in MYC/BCL2/BCL6. 55% and 43% had germinal center and activated B-cell molecular subtypes, respectively. 51% of patients had received ≥3 prior lines of antineoplastic therapy (range, 1-6); 49% had undergone a prior ASCT. All 99 patients in the main cohort had ≥3 months of follow-up or discontinued earlier and were evaluable for efficacy. ORR was 54% (95% CI, 43%-64%) with 40% CR and 13% PR. ORR was consistent across prognostic subgroups (including prior ASCT and double/triple-hit lymphoma) Median duration of response (DOR) was not reached; the probability of being relapse-free was 66% (95% CI, 51%-78%) at 6 months and 64% (95% CI, 48%-76%) at 12 months. DOR was similar by age group (≥ vs <65y) and by relapsed or refractory status (Figure). Median OS among all infused patients was 11.1 months (95% CI, 6.6-NE); OS probability at month 12, 48% (95% CI, 38%-57%; max follow-up, 29 months). No patients proceeded to allogeneic/ASCT while in remission.

`C=CC(=O)N1CCC[C@@H](n2nc(-c3ccc(Oc4ccccc4)cc3)c3c(N)ncnc32)C1` [ibrutinib, 1-[(3R)-3-[4-Amino-3-(4-phenoxyphenyl)-1H-pyrazolo[3,4-d]pyrimidin-1-yl]piperidin-1-yl]prop-2-en-1-one]: in the data set on MCL, the “CART19-mediated CRS” value is “reduced the CART19-mediated CRS” and the “survival of the mice” value was “prolonged survival”.
On to tisagenlecleucel, for which the “Median OS” value in data set [1] (all infused patients, 95% CI 6.6-NE) stood at 11.1 months. Besides, the “probability of being relapse-free” value in data set [1] (at 6 months, 95% CI 51%-78%) worked out at 66%. In addition, in data set [1] (at 12 months, 95% CI 48%-76%), the “probability of being relapse-free” value was 64%. The compound also registered an OS probability in data set [1] (at month 12, 95% CI 38%-57%) of 48%. Moreover, in data set [1] (interim analysis), the CR was found to be 43%, the “overall response rate (ORR)” value came out at 59% and the “partial response [PR]” value was found to be 16%. Further, the “Median duration of response (DOR)” value in data set [1] (updated analysis) is listed as “not reached”. This compound yielded an ORR in data set [1] (updated analysis, data cutoff 21 May 2018, 99 patients main cohort, 95% CI 43%-64%) of 54%. In data set [1] (updated analysis, main cohort), this compound had a CR of 40% and a PR of 13%.
